From patent publication EP3597650B1, “ALDOSE REDUCTASE INHIBITORS AND USES THEREOF” (The Trustees of Columbia University in the City of New York, priority 2010, dated 2012)

Legend:
[1] = Solubility in Krebs-Henseleit buffer; assay type: physicochemical; conditions: Krebs-Henseleit buffer with glucose, palmitate, bovine serum albumin, insulin
[2] = Solubility in water, LC-MS absorbance peak area at 254 nm; assay type: physicochemical; conditions: for Area (Integration of Absorbance Peaks): water pH 7.1, ambient temperature, 254 nm
Experimental: Each sample of Compound A & zopolrestat were placed, separately, in water (MQW ultra nanopure) at ambient temperature and vortexed for 3 minutes. The aliquots were then filtered through a tightly-packed cotton plug (placed in a pipette) to remove any residual solids. The attempted concentrations of the respective solutions of Compound A and zopolrestat made were 0.05 mg/mL, 0.1 mg/mL, 0.5 mg/mL, 1.0 mg/mL, 5.0 mg/mL, and 10.0 mg/mL. The pH of the water used was 7.1 (measured electronically by an Orion perpHect LogR Meter Model # 370).
The filtered samples were run through a binary gradient (program: 5%-100% MeCN over 30 mins) on a LC-MS (Shimadzu LCMS-2010A Liquid Chromatography Mass Spectrometer, reverse-phase column). A 5 µL volume of each sample solution was injected for each run. Each trace contained a peak (for Compound A, TR approx. 14.070 mins; for zopolrestat, TR approx. 16.666 mins) measured at a wavelength of 254 nm for which the respective parent ion masses were observed.
By comparing the absorbance areas under the peaks corresponding to Compound A & zopolrestat in each water solution made (Table 1), a solubility curve for each compound was generated (Fig. 1). […] Table 1. Integration of Absorbance Peaks for Various Concentrations of Compounds.

[3] = target: human recombinant aldose reductase (Homo sapiens, UniProt P15121); assay: biochemical
Experimental: The rcductasc activity of Compound A and zopolrestat were spectrophotometrically assayed by following the decrease of NADPH at 25°C for 4 min as described in Sato, S. (1992), "Rat kidney aldose reductase and aldehyde reductase and polyolproduction in rat kidney" Am. J. Physiol. 263, F799.F805, incorporated by reference herein in its entirety. [drawing 59]
Briefly, the reaction mixture (total volume 1 ml) contained 0.1 mM NADPH, 100 mM substrate (DL-glyceraldehyde or L-xylose) and human recombinant aldose reductase (100 mU) in 0.1 M phosphate buffer, pH 6.2. The head to head experiment was carried out in a microplate assay for AR inhibition using D-Glyceraldehyde and NADPH and the absorbance changes were monitored at 340nm and % inhibition was calculated for ARIs at concentrations ranging from 0.1 nM to 100 µM (Table 2 and Figure 2). Data is presented as mean ± standard deviation and is an average of 5 separate runs. The reaction was started by adding the substrate (glyceraldehyde or xylose) as well as the same reaction mixture in which the substrate replaced by deionized water was used as a control. One enzyme unit (U) was defined as the activity consuming 1 µmole of NADPH per min at 25 °C. Table 2. Aldose Reductase Activity for Zopolrestat and Compound A.

isolated rat heart = assay: Ex vivo isovolumic isolated rat heart, ischemia reperfusion (I/R) injury; conditions: 100 nM in perfusate; 20 min zero-flow ischemia, 60 min reperfusion
Experimental: Experiments were performed using an isovolumic isolated rat heart preparation as as described by Hwang YC, Sato S, Tsai JY, Yan S, Bakr S, Zhang H, Oates PJ , Ramasamy R (2002), "Aldose reductase activation is a key component of myocardial response to ischemia," Faseb J. 16, 243-245 and Ramasamy R, Hwang YC, Whang J , Bergmann SR (2001), "Protection of ischemic hearts by high glucose is mediated, in part, by GLUT-4," American Journal of Physiology. 281, H290-297.
Male Wistar rats (300.350 g, 3 to 4 months old) were anesthetized with a mixture of ketamine (80 mg/kg) and xylazine (10 mg/kg). After deep anesthesia was achieved, hearts were rapidly excised, placed into iced saline, and retrogradely perfused at 37 °C in a non-recirculating mode through the aorta at a rate of 12.5 ml/min. Hearts were perfused with modified Krebs-Henseleit buffer containing (in mM) NaCl 118, KCl 4.7, CaCl2 2.5, MgCl2 1.2, NaHCO3 25, glucose 5, palmitate 0.4, bovine serum albumin 0.4, and 70 mU/L insulin. […] Left ventricular developed pressure (LVDP) and left ventricular end diastolic pressure (LVEDP) were measured using a latex balloon in the left ventricle. LVDP, heart rate, and coronary perfusion pressure were monitored continuously on a ADI recorder. […]
Briefly, isolated perfused hearts were subjected to ischemia reperfusion (I/R) injury and the measures of cardiac injury and cardiac function monitored. […]

[4] = attempted concentration 0.05 mg/mL
[5] = attempted concentration 0.1 mg/mL
[6] = attempted concentration 0.5 mg/mL
[7] = attempted concentration 1 mg/mL
[8] = attempted concentration 5 mg/mL
[9] = attempted concentration 10 mg/mL

solubility in pH 7.1 water relative to Zopolrestat ([2]; ambient temperature, all concentrations) | Area (Integration of Absorbance Peaks) [2, 4] | Area (Integration of Absorbance Peaks) [2, 5] | Area (Integration of Absorbance Peaks) [2, 6] | Area (Integration of Absorbance Peaks) [2, 7] | Area (Integration of Absorbance Peaks) [2, 8] | Area (Integration of Absorbance Peaks) [2, 9] | inhibition at 0.0001 µM [3] | inhibition at 0.001 µM [3] | inhibition at 0.01 µM [3] | inhibition at 0.1 µM [3] | inhibition at 1 µM [3] | inhibition at 10 µM [3] | inhibition at 100 µM [3] | more active than zopolrestat in vitro against aldose reductase ([3]; fold relative to zopolrestat) | SMILES | solubility in Krebs-Henseleit buffer [1] | CK Release (isolated rat heart) | LVDP Recovery (isolated rat heart)
significantly greater solubility | 1811131 | 3221003 | 5814304 | 10515430 | 17216187 | 20397336 | 69 ± 1.3% | 79.6 ± 2.4% | 80 ± 1.8% | 89.2 ± 0.7% | 93.6 ± 2.8% | 95.3 ± 1.1% | 96.2 ± 3.3% | approximately 100 x | O=C(O)Cc1nn(Cc2nc3cc(C(F)(F)F)ccc3s2)c(=O)c2nccnc12 [Compound A, 2-(8-oxo-7-((5-(trifluoromethyl)benzo[d]thiazol-2-yl)methyl)-7,8-dihydropyrazino[2,3-d]pyridazin-5-yl)acetic acid] | soluble without ay precipitation or turbidity | Compound A treated Rat hearts = 425±63 IU/g wet weight | Compound A Treated Rat Hearts = 76±5 % of pre-ischemic values
 | 1039247 | 1899466 | 4304556 | 6129559 | 13314544 | 13362465 | 31.7 ± 5.1% | 39.3 ± 4.3% | 52.2 ± 1.9% | 76.7 ± 2.7% | 86.3 ± 3.6% | 90.1 ± 3.4% | 93.2 ± 3.8% |  | O=C(O)Cc1nn(Cc2nc3cc(C(F)(F)F)ccc3s2)c(=O)c2ccccc12 [zopolrestat, reference compound] | heat was applied to render zopolrestat soluble |  | 
